Where two headings read alike, the source gives them in different places.

This assay deals with CRBN/DDB1 protein (Homo sapiens, UniProt Q96SW2). In words: Detection of inhibition of CRBN/DDB1 activity by compounds (FRET). The format is binding. Here is the method:
Test Example 1 Detection of Inhibition of CRBN/DDB1 Activity by Compounds (FRET)
Microplate reader (BMG PHERAstar FSX), ECHO (LABCYTE Echo 665), microplate thermostatic oscillator (Hangzhou Ruicheng Instrument Co., Ltd.), disodium hydrogen phosphate (Sigma), sodium dihydrogen phosphate (Sigma), bovine serum albumin (Sigma), Anti-6His-Tb crypate Gold (CISBIO), CRBN/DDB1 protein (HitGen) and 384-well plate (Grenier Bio-one).
The dry powder of the compound was dissolved in DMSO, and the compound was serially diluted using ECHO, and added to a 384-well reaction plate, so that the final concentration of DMSO in the whole reaction system (10.0 μL) was 1.0%, and the same amount of DMSO was added as a control.
20 mM disodium hydrogen phosphate, 20 mM sodium dihydrogen phosphate, 0.08% bovine serum albumin and buffer with pH of 7.0 were used to dilute the CRBN/DDB1 protein to twice the required final concentration (5.0 nM), and 5.0 μL of the diluted CRBN/DDB1 protein was added into the 384-well reaction plate added with compounds, centrifuged at 1000 rpm for 1 min, then placed on a microplate thermostatic oscillator, and pre-incubated at 25° C. and 250 rpm for 15 min. 20 mM disodium hydrogen phosphate, 20 mM sodium dihydrogen phosphate, 0.08% bovine serum albumin and buffer with a pH of 7.0 were used to dilute Anti-6His-Tb crypate Gold and FITC-labeled thalidomide analogues to twice the required final concentration, and the final concentration of Anti-6His-Tb crypate Gold was 0.2 nM, the final concentration of FITC-labeled thalidomide analogues was 50.0 nM, and a mixed solution of Anti-6His-Tb crypate Gold/FITC-labeled thalidomide analogues was obtained. […] After the reaction was completed, the fluorescence signal value (Ex-337 nm Em=520/490 nm) in the 384-well reaction plate was read by the microplate reader. […]
The percentage of residual activity of each concentration was calculated as follows: […]
Then, the dose-effect curve was fitted using GraphPad Prism 6.0 and the IC50 value was calculated accordingly.

Sequence of CRBN/DDB1 protein (Q96SW2 whole entry, species assumed): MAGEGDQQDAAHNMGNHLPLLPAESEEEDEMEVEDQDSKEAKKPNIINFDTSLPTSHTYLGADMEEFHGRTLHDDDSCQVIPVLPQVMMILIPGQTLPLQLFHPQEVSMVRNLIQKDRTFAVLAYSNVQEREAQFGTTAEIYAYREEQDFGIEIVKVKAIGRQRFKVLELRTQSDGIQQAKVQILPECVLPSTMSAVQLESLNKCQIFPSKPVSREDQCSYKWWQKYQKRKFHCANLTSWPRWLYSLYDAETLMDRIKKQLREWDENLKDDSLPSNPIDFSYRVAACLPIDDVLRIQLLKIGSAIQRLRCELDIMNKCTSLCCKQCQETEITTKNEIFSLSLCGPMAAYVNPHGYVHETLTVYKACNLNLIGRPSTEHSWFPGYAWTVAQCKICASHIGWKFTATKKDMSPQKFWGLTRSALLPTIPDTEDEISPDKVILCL
Sequence of CRBN/DDB1 protein (Q16531 whole entry partner, species assumed): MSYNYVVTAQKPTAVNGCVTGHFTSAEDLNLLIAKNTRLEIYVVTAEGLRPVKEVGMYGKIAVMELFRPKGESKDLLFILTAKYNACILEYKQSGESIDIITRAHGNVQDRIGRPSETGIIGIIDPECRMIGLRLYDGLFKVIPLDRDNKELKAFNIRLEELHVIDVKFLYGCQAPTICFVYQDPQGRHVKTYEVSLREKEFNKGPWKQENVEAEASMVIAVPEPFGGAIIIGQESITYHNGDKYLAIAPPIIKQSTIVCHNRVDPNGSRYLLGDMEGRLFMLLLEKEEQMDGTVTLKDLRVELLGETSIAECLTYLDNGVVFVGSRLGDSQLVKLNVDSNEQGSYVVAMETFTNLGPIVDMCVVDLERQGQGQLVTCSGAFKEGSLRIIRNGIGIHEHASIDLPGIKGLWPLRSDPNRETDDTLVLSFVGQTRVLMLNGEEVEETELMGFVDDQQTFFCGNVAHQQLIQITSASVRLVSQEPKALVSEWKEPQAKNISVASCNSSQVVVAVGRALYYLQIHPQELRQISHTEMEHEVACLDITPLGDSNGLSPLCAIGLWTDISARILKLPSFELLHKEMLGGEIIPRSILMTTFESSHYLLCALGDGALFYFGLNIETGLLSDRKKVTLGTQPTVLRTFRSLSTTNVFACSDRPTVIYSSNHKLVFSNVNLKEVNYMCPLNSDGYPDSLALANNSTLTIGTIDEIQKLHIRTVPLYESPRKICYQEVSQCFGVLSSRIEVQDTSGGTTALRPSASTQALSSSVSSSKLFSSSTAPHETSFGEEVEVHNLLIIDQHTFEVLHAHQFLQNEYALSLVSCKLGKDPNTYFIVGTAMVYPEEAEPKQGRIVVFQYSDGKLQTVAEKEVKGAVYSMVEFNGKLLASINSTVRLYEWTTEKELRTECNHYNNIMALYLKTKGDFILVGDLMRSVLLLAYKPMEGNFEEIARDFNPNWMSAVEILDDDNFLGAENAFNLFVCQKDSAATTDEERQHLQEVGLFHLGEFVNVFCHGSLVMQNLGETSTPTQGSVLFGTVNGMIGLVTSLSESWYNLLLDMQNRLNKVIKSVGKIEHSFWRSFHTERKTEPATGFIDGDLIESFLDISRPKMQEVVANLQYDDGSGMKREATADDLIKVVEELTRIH

`O=C1CC2(CN(C(=O)c3c4n(c5ccccc35)C=NC4=O)C2)C(=O)N1` [Compound B3]: the IC50 is 43 nM.
For the compound `CN1Cn2c(c(C(=O)N3CC4(CC(=O)NC4=O)C3)c3ccccc32)C1=O` [Compound B5], the IC50 (FRET, 5.0 nM CRBN/DDB1, 0.2 nM Anti-6His-Tb, 50.0 nM FITC-labeled thalidomide analogue, 1.0% DMSO, 25° C., read-out: IC50, inhibition of CRBN/DDB1 protein) was 11 nM.
Take `O=C1CC2(CN(C(=O)c3c4n(c5ccccc35)CNC4=O)C2)C(=O)N1` [Compound B4]: the IC50 worked out at 18 nM.
